Experimental data reported in ChEMBL document CHEMBL1201862, “PubChem BioAssay data set” (2004).
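In this assay, cells in 96-well plates receive the compound at five concentrations for 48 hours. Endpoints are linearly interpolated between the surrounding concentrations. Abbreviation: GI50, concentration required for 50% inhibition of growth.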 Calls of active or inactive are those of the source. Cut-off read from the data, not from the text of the source: active = GI50 up to about 1.1 µM and inactive = higher.

Assays:
Assay in all cases: NCI tumour cell line growth inhibition, 48 h
UACC-62 = test system: UACC-62
MOLT-4 = test system: MOLT-4
SF-268 = test system: SF-268
UACC-257 = test system: UACC-257
DU-145 = test system: DU-145
LOX IMVI = test system: LOX IMVI
MCF7 = test system: MCF7
NCI-H23 = test system: NCI-H23
HT-29 = test system: HT-29
MDA-MB-231 = test system: MDA-MB-231
OVCAR-5 = test system: OVCAR-5
KM12 = test system: KM12
SK-MEL-5 = test system: SK-MEL-5
SW-620 = test system: SW-620
COLO 205 = test system: COLO 205
HOP-62 = test system: HOP-62
SK-OV-3 = test system: SK-OV-3
A498 = test system: A498
TK-10 = test system: TK-10
786-0 = test system: 786-0

Measured: GI50

CC(C)CC1C(=O)NCCC(NC(=O)C(N)Cc2ccc(O)cc2)C(=O)NC(Cc2ccccc2)C(=O)NC(Cc2ccccc2)NC1=O (stereo not given)
inactive: UACC-62 > 100 µM | MOLT-4 > 100 µM | SF-268 > 100 µM | UACC-257 > 100 µM | DU-145 > 100 µM | LOX IMVI > 100 µM | MCF7 > 100 µM | NCI-H23 > 100 µM | HT-29 > 100 µM | MDA-MB-231 > 100 µM | OVCAR-5 > 100 µM | KM12 > 100 µM | SK-MEL-5 17.9 µM | SW-620 > 100 µM | COLO 205 > 100 µM | HOP-62 > 100 µM | SK-OV-3 > 100 µM | A498 > 100 µM | TK-10 > 100 µM | 786-0 > 100 µM

O=C(CN1C(=O)c2ccccc2C1=O)C(O)CN1C(=O)c2ccccc2C1=O (stereo not given)
inactive: UACC-62 > 100 µM | MOLT-4 > 100 µM | SF-268 23.5 µM | UACC-257 > 100 µM | DU-145 47.2 µM | LOX IMVI 92.3 µM | MCF7 > 100 µM | NCI-H23 26.9 µM | HT-29 > 100 µM | MDA-MB-231 22.5 µM | OVCAR-5 > 100 µM | KM12 84.1 µM | SK-MEL-5 > 100 µM | SW-620 > 100 µM | COLO 205 > 100 µM | HOP-62 17.9 µM | SK-OV-3 27.9 µM | A498 87.1 µM | TK-10 46.1 µM | 786-0 28 µM

COC(=O)/C=C(/C(=O)OC)c1c(C)cc2c(C)cc(C)cc(C)c1-2
inactive: UACC-62 9.77 µM | MOLT-4 5.46 µM | SF-268 19.1 µM | UACC-257 19.3 µM | DU-145 22.4 µM | LOX IMVI 11.7 µM | MCF7 4.1 µM | NCI-H23 18.5 µM | HT-29 7.41 µM | MDA-MB-231 4.89 µM | OVCAR-5 18.9 µM | KM12 5.11 µM | SK-MEL-5 8.15 µM | SW-620 7.18 µM | COLO 205 7.24 µM | HOP-62 9.14 µM | SK-OV-3 21.5 µM | A498 26.4 µM | TK-10 27.1 µM | 786-0 15.2 µM
